Laboratory results published in US20100069343A1, “Methods of predicting steroid responsiveness with Il-1RII” (priority 2008, published 2010).
Values joined by “and” are separate entries in the source; they are usually repeats but may differ in a detail not shown here. Equal values may be shown once.

Tests used:
[1] = compared to placebo; cited from earlier work
[2] = test system: IL-1RA, IL-1β; details: experimentally; cited from earlier work
[3] = test system: patients with AIED; test: Prednisone treatment of AIED patients with sudden hearing decline, pre/post-treatment audiograms; type: in vivo, human; details: for AVG Improve: 60 mg prednisone daily 7 days then taper
Method: FIG. 5A. 10 patients with presumptive AIED and sudden declines in hearing were enrolled, blood samples were taken and then the patients were treated with 60 mg prednisone/day×7 days and then tapered. Post-treatment audiograms were obtained between 7-14 days later. Improvement (Δ) was measured as the average of 500, 1, 2, 4 & 8 kHz. […] The patient that improved 13.3 dB represented a patient that returned to normal hearing thresholds. PBMC were isolated, divided and cultured for 16 hours with either 0 μg/ml or increasing concentrations of dexamethasone (8, 20, 40 or 80 μg/ml). Fold changes in levels of mIL-1RII by Q-RT-PCR after in vitro challenge with dexamethasone (expressed as fold change over baseline) predicted steroid responsiveness in AIED. In data on 7 subjects, the fold-increase was log-transformed in order to better meet the assumptions of a normal distribution with equal variance.
Prospectively Enrolled, Steroid Treated Subjects. Ten patients with AIED who had not undergone cochlear implantation were studied in a separate IRB approved protocol. […] The responders were defined as a 10 dB or greater average improvement at 250, 500, 1000, 2000, 4000 and 8000 Hz. […] Furthermore, SNHL of greater than 30 dB at one or more frequencies in both ears with evidence of active deterioration (elevated threshold) in at least one ear of 15 dB at one frequency (excluding 250 or 8 kHz as a sole indicator), or 10 dB at 2+ frequencies developing in >3 days but <90 days (Niparko et al. 2005, Yeom et al. 2003). If the hearing loss evolved in less than 3 days, prior similar hearing declines must have occurred or the patient must have a systemic autoimmune disorder AND the patient must meet the audiology criteria outlined above. All patients with retrocochlear (vestibular schwannoma or other internal auditory canal s) pathology), patients who received prednisone or other immunosuppressive therapy within 3 months, or patients with vestibular symptoms coinciding with periods of hearing fluctuation were all excluded from this study. All patients received a minimum of 60 mg of prednisone daily for 7 days with a variable taper thereafter.
60% of patients studied by the AIED study group were steroid responsive (Niparko et al. 2005). In the present study, in vitro PBMC membrane-bound IL-IRII (mIL-1RII) mRNA expression in response to dexamethasone stimulation was compared to basal mIL-1RII expression in cultures of PBMCs collected prior to clinical steroid treatment. In addition, pre-treatment mIL-1RII expression was compared to post-treatment hearing recovery. Furthermore, pre- and post-treatment mIL-1RII expression were compared in a subset of clinical responders and non-responders. […] All responders returned to their prior baseline hearing thresholds at the end of the corticosteroid treatment. Non-responders were defined as less than 5 dB improvement at the same frequencies or further decline of pure tone thresholds. […] Of note, the dramatic difference in fold change of the corticosteroid responders is inversely proportional to basal mIL-1RII expression in PBMC (45 cycles, S.D. 0.0 in replicate samples) in an unstimulated condition, compared to corticosteroid non-responders (28.48 cycles, S.D.±3.34) (FIG. 5B, p<0.0001). In all patient samples, the unstimulated condition is the average of 2 independent cultured PBMC samples. Furthermore, post-steroid therapy mIL-1RII expression was determined in a subset of patients.

[4] = test system: mIL-1RII; test: Pre- and post-steroid therapy mIL-1RII expression in PBMC by Q-RT-PCR; type: in vivo, human; details: subset
Method: FIG. 5B. Pre- and post-treatment mIL-1RII levels in a subset of clinical responders and non-responders. Responders have essentially zero basal mIL-1RII expression, compared with non-responders that have substantially higher basal levels.
Q-RT-PCR. Quantitative Real Time RT-PCR (Q-RT-PCR) was performed on PBMC from patients using TaqMan chemistry. The relative abundance of IL1R2 mRNA for 2 membrane bound (mIL-1RII) and the soluble (sIL-1RII) coding regions associated with the 2 Affymetrix probes sets 211372 (sIL-1RII) and 205403 (mIL-1RID compared to β-actin was determined using the Eurogentec RTqPCR mastermix (Eurogentec, Belgium) and ABI PRISM 7700 Sequence Detection System. Membrane bound IL-1RII, as reflected by Affymetrix probe set 205403 was detected by primers nt 1239-1258, 1295-1314, and taqman probe 1271-1278, whereas the shorter soluble form (sIL-1RII) reflected by the Affymetrix probe 211372 and primers nt 790-830-849, and taqman probe 820-827. […] Data was analyzed using Sequence Detection System software version 1.9.1. Results were expressed as Ct (Threshold cycle) values, which is inversely proportional to the starting template copy number. Relative abundance of IL1R2 in […] cells was calculated compared to untreated control samples using delta delta Ct method (User Bulletin #2, Applied Biosystems Inc). […]

[5] = test system: TNF-α; details: animal studies, inner ear; cited from earlier work

Compound: CN(Cc1cnc2nc(N)nc(N)c2n1)c1ccc(C(=O)N[C@@H](CCC(=O)O)C(=O)O)cc1 [methotrexate]
- maintenance of hearing [1]: could not maintain hearing
- IL-1RA release [2]: stimulates IL-1RA release
- IL-1β synthesis [2]: inhibits IL-1β synthesis

Compound: C[C@]12C=CC(=O)C=C1CC[C@@H]1[C@@H]2C(=O)C[C@@]2(C)[C@H]1CC[C@]2(O)C(=O)CO [prednisone]
- hearing outcome of responders ([3]; Responders (R), post-treatment audiograms 7-14 days later): returned to prior baseline hearing
- AVG Improve ([3]; patient 39WM (R3)): 13.3 dB and 13 dB
- AVG Improve ([3]; patient 42 (NR2)): 0 dB
- AVG Improve ([3]; patient 45WM (NR 5), (NS)): 1 dB
- AVG Improve ([3]; patient 54 (R2)): 33 dB
- AVG Improve ([3]; patient 56 (R1)): 38 dB
- AVG Improve ([3]; patient 56WM (NR1)): 0 dB
- AVG Improve ([3]; patient 57 (NR4)): 0 dB
- AVG Improve ([3]; patient 60WF (NR7), (NS)): 4 dB
- AVG Improve ([3]; patient 61HF (NR3)): 0 dB
- AVG Improve ([3]; patient 62 (NR6)): 0dB
- mIL-1RII expression detected post-treatment ([4]; clinical non-responders, pre-treatment 30 cycles): 27 cycles
- mIL-1RII expression detected post-treatment ([4]; clinical responders, pre-treatment no expression at 45 cycles): 30 cycles

Compound: Etanercept
- TNF-α release after administration of antigen [5]: can be reversed
